Measured values: US5292757A, “1,4-dihydropyridine compounds useful as reverse resistance agents” (Ajinomoto Company, Inc., priority 1991, dated 1994)
In brackets after ≈: the same amount, converted by molar mass. Where a name gives a salt, the structure may show the parent alone.

How the values were obtained:
colon 26 cells = assay: Regression of tumor in colon 26 bearing mice in combination with adriamycin; assay type: in vivo, mouse (CDF1); conditions: for reducing tumor weight: in combination with adriamycin
Method: 20 mg of colon 26 cells were transplanted subcutaneously to CDF1 mice (6 weeks old, female) on day 0. On day 6 the diameter of the tumor was measured and groups of 5 mice were selected having equal average tumor size. On day 7 and 14, 10 mg/kg of adriamycin was injected i.v. and the tested compounds were administered p.o. at 0, 8, 24, 32 hours after the injection of adriamycin. Adriamycin was dissolved in saline to a concentration of 2 mg/ml and the compounds in Example 61 and 62 were dissolved in saline to a concentration of 50 mg/ml. The diameter of the tumor was measured each week and tumor weight was estimated as follows: [formula] (L:long diameter, S:short diameter, mm)

[1] = test system: Vincristine-resistant mouse P388 leukemia cells; assay: Test of effect on overcoming anti-cancer drug resistance (growth inhibition by vincristine, MTT method); assay type: cell-based
Method: Vincristine-resistant mouse P388 leukemia cells were used as an example of resistant cancer cells. RPMI-1640 medium containing 5 μM of 2-mercaptoethanol and 10% fetal calf serum was used for incubation.
The cells were inoculated on a 96-well microplate in 1×10^4 /50 μl/well and 25 μl each of vincristine solution having a specific concentration and an aqeous solution of the test compound (4 μg/ml) was added thereto. After culturing at 37° C. for 2 days, the viable cells were counted by the MTT method and a dose-response curve of vincristine was prepared. Based on the curve, the concentration (IC50) of vincristine producing a 50% inhibition of growth was determined.

[2] = compound dose 250 mg p.o. with adriamycin 10 mg/kg i.v., hydrochloride
[3] = compound dose 500 mg p.o. with adriamycin 10 mg/kg i.v., hydrochloride

| SMILES | tumor weight (colon 26 cells; [2]) | tumor weight (colon 26 cells; [3]) | reducing tumor weight (colon 26 cells) | other results |
| --- | --- | --- | --- | --- |
| COC(=O)C1=C(C)N(CCCc2ccccc2)C(C)=C(C(=O)OCCCc2cccnc2)C1c1ccc(OC)c(OC)c1 (single isomer, unassigned; (-)) [Example 62, (-)-1,4-dihydro-4-(3,4-dimethoxyphenyl)-2,6-dimethyl-1-(3-phenylpropyl-3,5-pyridinedicarboxylic acid 3-methyl-5-[3-(3-pyridyl)propyl]ester hydrochloride] | 1.8 g | 1.1 g | effective in reducing tumor weight in combination with adriamycin | – |
| CC[C@]1(O)C[C@H]2CN(CCc3c([nH]c4ccccc34)[C@@](C(=O)OC)(c3cc4c(cc3OC)N(C=O)[C@H]3[C@@](O)(C(=O)OC)[C@H](OC(C)=O)[C@]5(CC)C=CCN6CC[C@]43[C@@H]65)C2)C1 [vincristine, reference compound] | – | – | – | IC50 ([1]; Mus musculus, P388, 48 h, read-out: IC50 of vincristine alone): 0.05 to 0.1 µg/mL (≈ 0.0606 to 0.121 µM) |
| COC(=O)C1=C(C)N(CCCc2ccccc2)C(C)=C(C(=O)OCCCc2cccnc2)C1c1ccc(OC)c(OC)c1 (single isomer, unassigned; (+)) [Example 61, (+)-1,4-dihydro-4-(3,4-dimethoxyphenyl)-2,6-dimethyl-1-(3-phenylpropyl)-3,5-pyridinedicarboxylic acid 3-methyl-5-[3-(3-pyridyl)propyl] ester hydrochloride] | 2.2 g | 2 g | effective in reducing tumor weight in combination with adriamycin | – |
| COC(=O)C1=C(C)N(CCCc2ccccc2)C(C)=C(C(=O)OCCCN2CCN(CC(C)C)CC2)C1c1ccc(OC)c(OC)c1 (stereo not drawn) [Example 3, 1,4-dihydro-4-(3,4-dimethoxyphenyl)-2,6-dimethyl-1-(3-phenylpropyl)-3,5-pyridinedicarboxylic acid 3-methyl-5-[3-(4-isobutylpiperazino)propyl]ester] | – | – | – | IC50 (concentration of vincristine producing a 50% inhibition of growth in the presence of the compound) ([1]; vincristine IC50, test compound present at 1 μg/ml, 37° C., 2 days, MTT): 0.0015 µg/mL |
| COc1cccc2c1C(=O)c1c(O)c3c(c(O)c1C2=O)C[C@@](O)(C(=O)CO)C[C@@H]3O[C@H]1C[C@H](N)[C@H](O)[C@H](C)O1 [Adriamycin, reference compound] | – | – | – | tumor weight (colon 26 cells; adriamycin 10 mg/kg i.v. alone, no test compound (untreated 4.5 g)): 2.7 g |
